Experimental data as given in ChEMBL document CHEMBL1130299, “Time-dependent inhibition of neuronal nitric oxide synthase by N-propargylguanidine” (Bioorg Med Chem Lett, 1997).

Tested on: Nitric oxide synthase 1 (Bos taurus)
Assay: Inactivation constant for Neuronal nitric oxide synthase (nNOS) from bovine brain

- K inact: 0.39 min⁻¹
Compound: C#CCNC(=N)N
